Measured values reported in patent publication US8933022B2, “Methods and compositions for the treatment and prevention Hypoglycemia and related disorders” (JDS Therapeutics, LLC, priority 2011, dated 2015).
Marks after values point to notes of the source that are not given here.

Tests used:
[1] = Blood biochemistry of type-1 diabetes induced rats at the end of the experiment; assay type: in vivo, Wistar rats; conditions: STZ rats, daily for 26 days
Experimental: (§1) Forty-two Wistar rats were assigned to one of 6 experimental groups: 1) positive control: rats injected with saline 2) type-1 diabetes group: rats injected with streptozotocin (STZ, 65 mg/kg i.p.) to damage beta cells (n=35). Diabetic rats were then administered with a) none, b) Zn alone (6.23 μg ZnO), c) Cr alone (47.7 μg Cr-histidinate), d) Zn-insulin (6.23 μg ZnO+3 IU Ins/100 g BW), or e) Cr-insulin (47.7 μg Cr-histidinate+3 IU Ins/100 g BW), daily for 26 days (n=7 per subgroup). Body weights were measured at the beginning and end of the experiment.
(§2) Blood samples were collected on days—2 (beginning), 0 (induction), 4, 6, 12, and 26 for blood biochemistry. At the end of the experiment, rats were sacrificed for brain tissue GLUTs (1 and 3). Data were analyzed using one-way ANOVA with LSD option for mean comparison.

[2] = tested on: OCT-1 (organic cation transporter 1); experiment: Kidney OCT-1 levels in type-1 diabetes induced rats; assay type: in vivo, Wistar rats; conditions: bands, STZ rats, n = 7; control = 100.00 (percentage of control)
[3] = tested on: NFK (nuclear factor kappa B); experiment: Kidney NFK levels in type-1 diabetes induced rats; assay type: in vivo, Wistar rats; conditions: bands, STZ rats, n = 7; control = 100.00
[4] = tested on: MRP2 (multidrug resistance protein 2); experiment: Kidney MRP2 levels in type-1 diabetes induced rats; conditions: bands, STZ rats, n = 7; control = 100.00
Experimental: as §1, §2

[5] = Glucose pattern before and after injection in type-1 diabetes induced rats; assay type: in vivo, Wistar rats; conditions: STZ rats; for Glucose, Day 4, After / Glucose, Day 6, After / Glucose, Day 12, After / Glucose, Day 21, After: after injection; for Glucose, Day 4, After / Glucose, Day 4, Before: no unit in table (mg/dl); for Glucose, Day 6, After / Glucose, Day 12, After / Glucose, Day 21, After / Glucose, Day 6, Before / Glucose, Day 12, Before / Glucose, Day 21, Before: no unit in table; for Glucose, Day 4, Before / Glucose, Day 6, Before / Glucose, Day 12, Before / Glucose, Day 21, Before: before injection
Experimental: as §1, §2

[6] = Serum and brain chromium in type-1 diabetes induced rats; conditions: STZ rats, n = 7; footnote: daily for 8 weeks
Experimental: as §1, §2

OCT-2 = experiment: Kidney OCT-2 levels in type-1 diabetes induced rats; assay type: in vivo, Wistar rats; conditions: bands, STZ rats, n = 7; control = 100.00
[7] = Body weight of type-1 diabetes induced rats (Example 8); assay type: in vivo, Wistar rats; conditions: Example 8, STZ rats, n = 7; for Initial BW: before treatment; for BW Change / Final BW: daily for 26 days
Experimental: as §1, §2

[8] = tested on: NFK (nuclear factor kappa B); experiment: Brain NFK levels in type-1 diabetes induced rats; assay type: in vivo, Wistar rats; conditions: bands, STZ rats, n = 7; control = 100.00
Experimental: as §1, §2

insulin = experiment: Brain insulin levels in type-1 diabetes induced rats; assay type: in vivo, Wistar rats; conditions: bands, STZ rats, n = 7; control = 100.00
Experimental: as §1, §2

GLUT-3 [9] = experiment: Cerebral GLUT-3 expression in type-1 diabetes induced rats; assay type: in vivo, Wistar rats; conditions: STZ rats, daily for 26 days; control = 100.00
Experimental: Forty-two Wistar rats were assigned to one of 6 experimental groups: 1) positive control: rats injected with saline 2) type-1 diabetes group: rats injected with streptozotocin (STZ, 65 mg/kg i.p.) to damage beta cells (n=35). Diabetic rats were then administered with a) none, b) Zn alone (6.23 μg ZnO), c) Cr alone (47.7 μg Cr-histidinate), d) Zn-insulin (6.23 μg ZnO+3 IU Ins/100 g BW), or e) Cr-insulin (47.7 μg Cr-histidinate+3 IU Ins/100 g BW), daily for 26 days (n=7 per subgroup).
At the end of the experiment, rats were sacrificed for brain tissue GLUTs (1 and 3). Data were analyzed using one-way ANOVA with LSD option for mean comparison.

GLUT-1 [10] = experiment: Cerebral GLUT-1 expression in type-1 diabetes induced rats; assay type: in vivo, Wistar rats; conditions: STZ rats, daily for 26 days; control = 100.00
Experimental: as §1, §2

Tryptophan = experiment: Brain tryptophan in type-1 diabetes induced rats; assay type: in vivo, Wistar rats; conditions: STZ rats, n = 7; footnote: daily for 8 weeks
[11] = Brain chromium levels in insulin-induced hypoglycemic rats; conditions: 15 U insulin/kg i.p., 110 μg/kg/day, one week, mean ± s.d.
Experimental: (§3) In order to evaluate chromium's potential protective effects preventing insulin-induced hypoglycemia, animals were administered insulin to induce hypoglycemia, and markers of hypoglycemic brain damage were compared in animals with and without administration of chromium.
(§4) Briefly, hypoglycemia was induced in Sprague-Dawley rats (males, 8-weeks old) by intraperitoneal injection of 15 U insulin/kg BW. The rats were separated into four groups of 15 rats each: (1) a control group not receiving insulin (“Control”); (2) a group not administered chromium (“Hypo”); (3) a group administered 110 μg/kg/day of chromium picolinate (CrPic); and, a group administered 110 μg/kg/day of chromium histidinate (CrHis). After one week of dosing, brains were removed from the sacrificed rats and analyzed for markers of hypoglycemic damage: GLUT-1; GLUT-3; Nrf2; GFAP; and HNE.

GLUT-1 [12] = experiment: Brain GLUT-1 expression in insulin-induced hypoglycemic rats; conditions: 15 U insulin/kg i.p., 110 μg/kg/day, one week, mean ± s.d.
Experimental: as §3, §4

Serotonin = experiment: Brain serotonin in type-1 diabetes induced rats; assay type: in vivo, Wistar rats; design: unit not given here; conditions: STZ rats, n = 7; footnote: daily for 8 weeks
Nrf2 = experiment: Hippocampus Nrf2 expression in insulin-induced hypoglycemic rats; conditions: 15 U insulin/kg i.p., 110 μg/kg/day, one week, mean ± s.d.
Experimental: as §3, §4

GLUT-3 [13] = experiment: Brain GLUT-3 expression in insulin-induced hypoglycemic rats; conditions: 15 U insulin/kg i.p., 110 μg/kg/day, one week, mean ± s.d.
Experimental: as §3, §4

GFAP = experiment: Hippocampus GFAP expression in insulin-induced hypoglycemic rats; conditions: 15 U insulin/kg i.p., 110 μg/kg/day, one week, mean ± s.d.
Experimental: as §3, §4

[14] = Serum glucose 0.5 hrs after insulin injection in insulin-induced hypoglycemic rats; assay type: in vivo, Sprague-Dawley rats; conditions: 15 U insulin/kg i.p., 110 μg/kg/day chromium complex, one week, mean ± s.d.
HNE = experiment: Hippocampus HNE expression in insulin-induced hypoglycemic rats; conditions: 15 U insulin/kg i.p., 110 μg/kg/day, one week, mean ± s.d.
Experimental: as §3, §4

[O]=[Zn] [STZ + Zn, zinc oxide]
ALP [1]: 453 ± 11^b U/L | ALT [1]: 143 ± 9^b U/L | AST [1]: 328 ± 17^a U/L | Albumin [1]: 2.59 ± 0.06^b g/dL | CK [1]: 6872 ± 1248^b U/L | Creatinine [1]: 1.05 ± 0.07^b mg/dL | Glucose [1]: 456 ± 13^ab mg/dL | Insulin [1]: 20.9 ± 0.9^bc μU/mL | K [1]: 5.53 ± 0.09^b mmol/L | LDH [1]: 2564 ± 85^ab U/L | Total protein [1]: 5.91 ± 0.07^b g/dL | Urea [1]: 65.6 ± 1.0^b mg/dL | Uric acid [1]: 6.49 ± 0.69^ab mg/dL | Kidney oct1 [2]: 50.02 ± 2.05^d | Kidney nfk [3]: 120.31 ± 1.65^b | Kidney mrp2 [4]: 148.73 ± 2.74^b | Glucose, Day 4, After [5]: 303 | Glucose, Day 6, After [5]: 372 | Glucose, Day 12, After [5]: 412 | Glucose, Day 21, After [5]: 329 | Glucose, Day 4, Before [5]: 457 | Glucose, Day 6, Before [5]: 350 | Glucose, Day 12, Before [5]: 421 | Glucose, Day 21, Before [5]: 380 | Brain Cr [6]: 9.05 ± 0.56^d ng/g | Serum Cr [6]: 33.65 ± 2.26^d mcg/g | Kidney oct2 (OCT-2): 51.38 ± 1.17^d | Initial BW [7]: 195.43 ± 7.63 g | BW Change [7]: −9.71 ± 4.03^bc % | Final BW [7]: 175.71 ± 7.67^bc g | Brain nfk [8]: 150.59 ± 2.73^b | Brain ins (insulin): 44.08 ± 3.31^c | cerebral GLUT-3 expression (GLUT-3 [9]): 43.41 ± 3.53^c | cerebral GLUT-1 expression (GLUT-1 [10]): 46.82 ± 3.23^c | Brain Tryptophan (Tryptophan): 4.54 ± 0.23^d mcg/g

chromium histidinate [CrHis]
Brain Cr Levels [11]: 21.6 ± 1.7 ng/g | Cerebellum GLUT-1 Expression (GLUT-1 [12]): 83.0 ± 4.2 % Control | Cortex GLUT-1 Expression (GLUT-1 [12]): 99.9 ± 7.3 % Control | Hippocampus GLUT-1 Expression (GLUT-1 [12]): 103.7 ± 2.8 % Control | ALP [1]: 442 ± 13^bc U/L | ALT [1]: 125 ± 12^bc U/L | AST [1]: 291 ± 24^ab U/L | Albumin [1]: 2.74 ± 0.06^ab g/dL | CK [1]: 6745 ± 934^b U/L | Creatinine [1]: 0.90 ± 0.08^bc mg/dL | Glucose [1]: 423 ± 15^bc mg/dL | Insulin [1]: 22.0 ± 0.8^bc μU/mL | K [1]: 5.57 ± 0.12^b mmol/L | LDH [1]: 2367 ± 52^b U/L | Total protein [1]: 6.07 ± 0.12^b g/dL | Urea [1]: 62.1 ± 2.5^bc mg/dL | Uric acid [1]: 6.21 ± 0.57^b mg/dL | Brain Serotonin (Serotonin): 512 ± 7 | Kidney oct1 [2]: 50.90 ± 1.71^d | Kidney nfk [3]: 118.86 ± 1.47^b | Kidney mrp2 [4]: 140.21 ± 2.05^b | Glucose, Day 4, After [5]: 237 | Glucose, Day 6, After [5]: 349 | Glucose, Day 12, After [5]: 349 | Glucose, Day 21, After [5]: 303 | Glucose, Day 4, Before [5]: 403 | Glucose, Day 6, Before [5]: 330 | Glucose, Day 12, Before [5]: 340 | Glucose, Day 21, Before [5]: 368 | Brain Cr [6]: 11.87 ± 0.89^c ng/g | Serum Cr [6]: 48.64 ± 2.70^c mcg/g | Kidney oct2 (OCT-2): 53.50 ± 1.13^d | Initial BW [7]: 195.43 ± 5.94 g | BW Change [7]: −10.17 ± 3.94^bc % | Final BW [7]: 176.57 ± 12.27^bc g | Hippocampus Nrf2 Expression (Nrf2): 61.8 ± 1.4 % Control | Brain nfk [8]: 134.24 ± 4.10^b | Cerebellum GLUT-3 Expression (GLUT-3 [13]): 166.9 ± 2.2 % Control | Cortex GLUT-3 Expression (GLUT-3 [13]): 287.5 ± 31.3 % Control | Hippocampus GLUT-3 Expression (GLUT-3 [13]): 177.8 ± 4.7 % Control | Brain ins (insulin): 47.89 ± 4.67^c | Hippocampus GFAP Expression (GFAP): 204.9 ± 4.9 % Control | cerebral GLUT-3 expression (GLUT-3 [9]): 49.41 ± 2.39^c | cerebral GLUT-1 expression (GLUT-1 [10]): 53.81 ± 3.53^c | Serum Glucose at 0.5 hrs [14]: 42.6 ± 6.8 mg/dL | Brain Tryptophan (Tryptophan): 4.74 ± 0.36^d mcg/g | Hippocampus HNE Expression (HNE): 140.1 ± 12.0 % Control

chromium picolinate [CrPic]
Cerebellum GLUT-1 Expression (GLUT-1 [12]): 75.6 ± 7.6 % Control | Cortex GLUT-1 Expression (GLUT-1 [12]): 122.8 ± 1.3 % Control | Hippocampus GLUT-1 Expression (GLUT-1 [12]): 102.3 ± 5.5 % Control | Hippocampus Nrf2 Expression (Nrf2): 38.9 ± 3.6 % Control | Cerebellum GLUT-3 Expression (GLUT-3 [13]): 206.3 ± 6.4 % Control | Cortex GLUT-3 Expression (GLUT-3 [13]): 319.5 ± 14.6 % Control | Hippocampus GLUT-3 Expression (GLUT-3 [13]): 198.6 ± 8.9 % Control | Hippocampus GFAP Expression (GFAP): 251.2 ± 9.1 % Control | Serum Glucose at 0.5 hrs [14]: 40.7 ± 5.2 mg/dL | Hippocampus HNE Expression (HNE): 162.5 ± 12.4 % Control
